From article PMC11292009, “Mapping protein binding sites by photoreactive fragment pharmacophores” (Communications Chemistry, 2024)

Experiments:
Assay type in all cases: binding
[1] = system: carbonic anhydrase II (CA); experiment: Intact protein MS photoaffinity labeling screen, carbonic anhydrase; details: intact protein MS after 10 min irradiation
Protocol: (§1) Using a plate-based format with one fragment per well, each fragment was incubated with the target proteins for 15 min to allow for the formation of non-covalent interactions. […] Finally, the results were directly analyzed from the plate using intact protein mass spectrometry by observing the mass additions that correspond to successful labeling (Fig. 2c, for labeling % values see Supplementary data). The library was first characterized against three benchmark proteins like carbonic anhydrase (CA), lysozyme (Lyo), and myoglobin (Myo).

BRD4-BD1 = system: T1, BRD4-BD1; experiment: Intact MS photoaffinity labeling screen, BRD4-BD1 (302 nm, LCMS-TOF); details: for MS labeling percentage, BRD4: BRD4-BD1, 302 nm 10 min; for experimental hit status BRD4-BD1: 0/1 flag; for BRD4-BD1: experimental hit status flag (0/1)
T1 construct: screened the PhP library against the first bromodomain of BRD4 (BRD4-BD1); purchased GSK/GenScript
Protocol: as §1
(§2) The PhP library was screened against BRD4-BD1 and KRas^G12D as follows. […] The probe plate was placed on ice. 15 μL of protein stock solution (1 μM BRD4-BD1 (GSK/GenScript) or KRas^G12D (GSK/GenScript) in PBS buffer) was dispensed into wells containing fragments. The plate was left on ice for 15 min for incubation, then irradiated at 302 nm for 10 min, and centrifuged (1000 rpm, 1 min) to remove any bubbles. […] The deconvoluted spectra were analyzed using R Studio software.

KRas^G12D = system: T2, KRas^G12D; experiment: Intact MS photoaffinity labeling screen, KRas G12D (302 nm, LCMS-TOF); details: for MS labeling percentage, KRas: KRas G12D, 302 nm 10 min; for experimental hit status KRAS-G12D: 0/1 flag; for KRAS-G12D: experimental hit status flag (0/1)
T2 construct: purchased GSK/GenScript
Protocol: as §1, §2

lysozyme (Lyo) = experiment: Intact protein MS photoaffinity labeling screen, lysozyme; details: intact protein MS after 10 min irradiation
Protocol: as §1

myoglobin (Myo) = experiment: Intact protein MS photoaffinity labeling screen, myoglobin; details: intact protein MS after 10 min irradiation
Protocol: as §1

STAT5B-NTD [2] = system: T3, STAT5B-NTD; experiment: Intact MS photoaffinity labeling screen, STAT5B-NTD (365 nm, UHPLC-MS); details: for MS labeling percentage, STAT5B: STAT5B-NTD, 365 nm 10 min, no photocatalyst; for experimental hit status STAT5B-NTD: 0/1 flag; for STAT5B-NTD: experimental hit status flag (0/1);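 for MS labeling percentage, STAT5B: 0.17 µL of 100 mM DMSO fragment stock added to the protein sample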
T3 construct: His-SUMO (N, cleaved yes); made in house; host or cells: E. coli BL21 RILP
Protocol: STAT5B protein in 7 µM concentration in pH 7.4 PBS buffer was pre-incubated with 0.17 µL PhP (in 100 mM DMSO solution) for 1 h at room temperature in dark. Irradiation was carried out at 4 °C for 10 min using 365 nm UV lamp.
(§3) During the analysis, the column temperature was maintained at a constant 60 °C, and a sample volume of 3 µL was injected for each analysis. Data acquisition was conducted in positive ion mode within the m/z 100–2000 (mass-to-charge ratio) range. For the full protocol and spectra of the hits, see Supplementary Note 2.

STAT5B-NTD [3] = system: T3, STAT5B-NTD; experiment: Intact MS labeling screen, STAT5B-NTD conjugated with photocatalyst Ir-G2-PEG3-COOH (450 nm); details: 450 nm 10 min;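 note: 0.14 µL of 100 mM DMSO fragment stock added to the conjugate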
Protocol: For the photocatalysis experiments, 1.4 µL photocatalyst (in 1.4 mM DMSO solution, 10 eq) was pre-incubated with 1.5 µL coupling reagent (0.75 µL, 5.6 mM EDC (20 eq)+0.75 µL 4.2 mM NHS and 1.5 µL 2.1 mM (15 eq) BOP for 30 min in dark. 30 µL STAT5B-NTD (in 7 µM concentration) was added and incubated further at room temperature overnight or at 37 °C for 1 h in dark. After addition of 0.14 µL PhP (in 100 mM DMSO) the solution was further incubated in dark for 1 h. Irradiation was carried out using 450 nm LED lamp (7.6Vx0A) for 10 min at 4 °C.
as §3

[4] = PhP library sheet "PhP", binary flag printed as 0 or 1, key not given
[5] = hit flag 1/0, sheet PhP, photoaffinity labeling screen
[6] = sheet PhP, experimental hit status flag given as 0 or 1

Row | Structure (SMILES) | MS labeling percentage, CA [1] | MS labeling percentage, BRD4 (BRD4-BD1) | MS labeling percentage, KRas (KRas^G12D) | MS labeling percentage, Lyo (lysozyme (Lyo)) | MS labeling percentage, Myo (myoglobin (Myo)) | MS labeling percentage, STAT5B (STAT5B-NTD [2]) | MS labeling percentage, STAT5B+photocat (STAT5B-NTD [3]) | other results
1 | CC1(CCC(=O)NC(COCc2ccccc2)C(=O)OCc2ccccc2)N=N1 (stereo not drawn) [PhP086, c1ccccc1COC(=O)C(NC(=O)CCC2(C)N=N2)COCc3ccccc3] | 0.4% | 0.2% | 0.3% | 0% | 0.2% | 0% | 4.6% | BRD4-BD1 (experimental hit status) (BRD4-BD1; [4]): 0; KRAS-G12D (experimental hit status) (KRas^G12D; [4]): 0; STAT5B-NTD (experimental hit status) (STAT5B-NTD [2]; [4]): 0
2 | CC1(CCC(=O)NCCNC(=O)c2ccncc2)N=N1 [PhP084, N1=NC1(C)CCC(=O)NCCNC(=O)c2ccncc2] | 1.6% | 0.9% | 0.3% | 0% | 0.4% | 0% | 0.7% | BRD4-BD1 (experimental hit status) (BRD4-BD1; [4]): 0; KRAS-G12D (experimental hit status) (KRas^G12D; [4]): 0; STAT5B-NTD (experimental hit status) (STAT5B-NTD [2]; [4]): 0
3 | CC1(CCC(=O)NCCNC(=O)Nc2ccccc2)N=N1 [PhP094, N1=NC1(C)CCC(=O)NCCNC(=O)Nc2ccccc2] | 0.4% | 1.1% | 0.5% | 0.9% | 0.1% | 1% | 2.1% | BRD4-BD1 (experimental hit status) (BRD4-BD1; [4]): 0; KRAS-G12D (experimental hit status) (KRas^G12D; [4]): 0; STAT5B-NTD (experimental hit status) (STAT5B-NTD [2]; [4]): 0
4 | CC1(CCC(=O)NC2CCc3nccn3C2)N=N1 (stereo not drawn) [PhP047, N1=NC1(C)CCC(=O)NC(CC2)Cn(c23)ccn3] | 0.6% | 0.5% | 0.1% | 0% | 0% | 0% | 2.1% | BRD4-BD1 (experimental hit status) (BRD4-BD1; [5]): 0; KRAS-G12D (experimental hit status) (KRas^G12D; [5]): 0; STAT5B-NTD (experimental hit status) (STAT5B-NTD [2]; [5]): 0
5 | CC1(CCC(=O)NCCNC(=O)c2ccc(Cl)cc2)N=N1 [PhP027, N1=NC1(C)CCC(=O)NCCNC(=O)c2ccc(Cl)cc2] | 0.4% | 0.5% | 0.1% | 0% | 0.2% | 1% | 5.2% | experimental hit status BRD4-BD1 (BRD4-BD1): 0; experimental hit status KRAS-G12D (KRas^G12D): 0; experimental hit status STAT5B-NTD (STAT5B-NTD [2]): 0
6 | CC1(CCC(=O)NCc2cccc(C(N)=O)c2)N=N1 [PhP059, N1=NC1(C)CCC(=O)NCc2cccc(c2)C(=O)N] | 0.6% | 0.7% | 0.8% | 0% | 0.7% | 1% | 0.3% | BRD4-BD1 (experimental hit status) (BRD4-BD1; [6]): 0; KRAS-G12D (experimental hit status) (KRas^G12D; [6]): 0; STAT5B-NTD (experimental hit status) (STAT5B-NTD [2]; [6]): 0
7 | CCOC(=O)c1c(NC(=O)CCC2(C)N=N2)sc2c1CCN(Cc1ccccc1)C2 [PhP002, N1=NC1(C)CCC(=O)Nc(s2)c(C(=O)OCC)c(c23)CCN(C3)Cc4ccccc4] | 0.2% | 0.1% | 0.2% | 0% | 0.1% | 0% | 0% | BRD4-BD1 (BRD4-BD1): 0; KRAS-G12D (KRas^G12D): 0; STAT5B-NTD (STAT5B-NTD [2]): 0
8 | CN(C)Cc1nc2ccc(NC(=O)CCC3(C)N=N3)cc2o1 [PhP055, CN(C)Cc(n1)oc(c12)cc(cc2)NC(=O)CCC3(C)N=N3] | 0% | 0.7% | 0.3% | 0% | 0% | 0% | 0.8% | BRD4-BD1 (experimental hit status) (BRD4-BD1; [5]): 0; KRAS-G12D (experimental hit status) (KRas^G12D; [5]): 0; STAT5B-NTD (experimental hit status) (STAT5B-NTD [2]; [5]): 0

Now from value to compound, other results behind:

Row | MS labeling percentage, CA [1] | Structure (SMILES) | MS labeling percentage, BRD4 (BRD4-BD1) | MS labeling percentage, KRas (KRas^G12D) | MS labeling percentage, Lyo (lysozyme (Lyo)) | MS labeling percentage, Myo (myoglobin (Myo)) | MS labeling percentage, STAT5B (STAT5B-NTD [2]) | MS labeling percentage, STAT5B+photocat (STAT5B-NTD [3]) | other results
9 | 0.2% | CC1(CCC(=O)NCc2ccccc2NS(C)(=O)=O)N=N1 [PhP025, CS(=O)(=O)Nc1ccccc1CNC(=O)CCC2(C)N=N2] | 0.2% | 0.1% | 0% | 0.1% | 0% | 1.2% | experimental hit status BRD4-BD1 (BRD4-BD1): 0; experimental hit status KRAS-G12D (KRas^G12D): 0; experimental hit status STAT5B-NTD (STAT5B-NTD [2]): 0
10 | 0.6% | CC1(CCC(=O)NCCc2nc3ccccc3[nH]2)N=N1 [PhP031, N1=NC1(C)CCC(=O)NCCc(n2)[nH]c(c23)cccc3] | 0.8% | 0.4% | 0% | 0.3% | 1% | 0.5% | experimental hit status BRD4-BD1 (BRD4-BD1): 0; experimental hit status KRAS-G12D (KRas^G12D): 0; experimental hit status STAT5B-NTD (STAT5B-NTD [2]): 0
11 | 0.5% | CC1(CCC(=O)NCC(C)(C)NS(C)(=O)=O)N=N1 [PhP045, CS(=O)(=O)NC(C)(C)CNC(=O)CCC1(C)N=N1] | 0.4% | 0.2% | 0% | 0.2% | 0% | 2.3% | BRD4-BD1 (experimental hit status) (BRD4-BD1; [5]): 0; KRAS-G12D (experimental hit status) (KRas^G12D; [5]): 0; STAT5B-NTD (experimental hit status) (STAT5B-NTD [2]; [5]): 0
12 | 0.3% | CC1(CCC(=O)NCCCn2ccnc2)N=N1 [PhP050, N1=NC1(C)CCC(=O)NCCCn2ccnc2] | 0.4% | 0.6% | 0% | 0.2% | 1% | 0.4% | BRD4-BD1 (experimental hit status) (BRD4-BD1; [5]): 0; KRAS-G12D (experimental hit status) (KRas^G12D; [5]): 0; STAT5B-NTD (experimental hit status) (STAT5B-NTD [2]; [5]): 0
13 | 0.5% | Cc1nnc(C(C)NC(=O)CCC2(C)N=N2)[nH]1 (stereo not drawn) [PhP090, Cc([nH]1)nnc1C(C)NC(=O)CCC2(C)N=N2] | 0.3% | 0.1% | 0% | 0.2% | 0% | 0.5% | BRD4-BD1 (experimental hit status) (BRD4-BD1; [4]): 0; KRAS-G12D (experimental hit status) (KRas^G12D; [4]): 0; STAT5B-NTD (experimental hit status) (STAT5B-NTD [2]; [4]): 0
14 | 0.7% | Cc1nn(C)cc1CNC(=O)CCC1(C)N=N1 [PhP021, Cc1nn(C)cc1CNC(=O)CCC2(C)N=N2] | 0.9% | 0.2% | 0% | 0.3% | 1% | 0.4% | experimental hit status BRD4-BD1 (BRD4-BD1): 0; experimental hit status KRAS-G12D (KRas^G12D): 0; experimental hit status STAT5B-NTD (STAT5B-NTD [2]): 0
15 | 0.6% | CC1(CCC(=O)NC2CCc3nc(C(C)(C)C)cn3C2)N=N1 (stereo not drawn) [PhP016, CC(C)(C)c(c1)nc(n12)CCC(C2)NC(=O)CCC3(C)N=N3] | 0.3% | 0.2% | 0% | 0.2% | 0% | 8.9% | BRD4-BD1 (BRD4-BD1): 0; KRAS-G12D (KRas^G12D): 0; STAT5B-NTD (STAT5B-NTD [2]): 0
